From patent US8633205B2, “Substituted pyrrolo[2,3-d]pyrimidines as inhibitors of protein kinases” (Vertex Pharmaceuticals Incorporated, priority 2005, dated 2014) come the findings set out here.

One may read the Ki as the dissociation constant of the complex between target and ligand, obtained from inhibition or displacement.

Bounds are passed on as bounds.

What all share (assay type): biochemical
Assay [1] deals with JAK2 (Homo sapiens, UniProt O60674). As to the kind of experiment: JAK2 Inhibition Assay. Conditions: 15 μM poly(Glu)4Tyr, 12 μM ATP; read-out: JAK2 enzyme inhibition (Ki). Here is the method: (§1) Compounds were screened for their ability to inhibit JAK using the […] below. Reactions were carried out in a kinase buffer containing 100 mM HEPES (pH 7.4), 1 mM DTT, 10 mM MgCl2, 25 mM NaCl, and 0.01% BSA.
(§2) Substrate concentrations in the assay were 5 μM ATP (200 uCi/μmole ATP) 1 μM poly(Glu)4Tyr. Reactions were carried out at 25 ° C. and 1 nM JAK3.
(§3) To each well of a 96 well polycarbonate plate was added 1.5 μl of a JAK3 inhibitor along with 50 μl of kinase buffer containing 2 μM poly(Glu)4Tyr and 10 μM ATP. This was then mixed and 50 μl of kinase buffer 2 nM JAK3 enzyme was added to start the reaction. After 20 minutes at room temperature (25C), the reaction was stopped with 50 μl of 20% trichloroacetic acid (TCA) that also contained 0.4 mM ATP. The entire contents of each well were then transferred to a 96 well glass fiber filter plate using a TomTek Cell Harvester. After washing, 60 μl of scintillation fluid was added and ^33P incorporation detected on a Perkin Elmer TopCount.
As described above in Example 11 except that JAK-2 enzyme is used, the final poly(Glu)4Tyr concentration is 15 μM, and final ATP concentration is 12 μM.

Assay [2] deals with T1, JAK3 (Homo sapiens, UniProt P52333).
T1 sequence (P52333 1-1124): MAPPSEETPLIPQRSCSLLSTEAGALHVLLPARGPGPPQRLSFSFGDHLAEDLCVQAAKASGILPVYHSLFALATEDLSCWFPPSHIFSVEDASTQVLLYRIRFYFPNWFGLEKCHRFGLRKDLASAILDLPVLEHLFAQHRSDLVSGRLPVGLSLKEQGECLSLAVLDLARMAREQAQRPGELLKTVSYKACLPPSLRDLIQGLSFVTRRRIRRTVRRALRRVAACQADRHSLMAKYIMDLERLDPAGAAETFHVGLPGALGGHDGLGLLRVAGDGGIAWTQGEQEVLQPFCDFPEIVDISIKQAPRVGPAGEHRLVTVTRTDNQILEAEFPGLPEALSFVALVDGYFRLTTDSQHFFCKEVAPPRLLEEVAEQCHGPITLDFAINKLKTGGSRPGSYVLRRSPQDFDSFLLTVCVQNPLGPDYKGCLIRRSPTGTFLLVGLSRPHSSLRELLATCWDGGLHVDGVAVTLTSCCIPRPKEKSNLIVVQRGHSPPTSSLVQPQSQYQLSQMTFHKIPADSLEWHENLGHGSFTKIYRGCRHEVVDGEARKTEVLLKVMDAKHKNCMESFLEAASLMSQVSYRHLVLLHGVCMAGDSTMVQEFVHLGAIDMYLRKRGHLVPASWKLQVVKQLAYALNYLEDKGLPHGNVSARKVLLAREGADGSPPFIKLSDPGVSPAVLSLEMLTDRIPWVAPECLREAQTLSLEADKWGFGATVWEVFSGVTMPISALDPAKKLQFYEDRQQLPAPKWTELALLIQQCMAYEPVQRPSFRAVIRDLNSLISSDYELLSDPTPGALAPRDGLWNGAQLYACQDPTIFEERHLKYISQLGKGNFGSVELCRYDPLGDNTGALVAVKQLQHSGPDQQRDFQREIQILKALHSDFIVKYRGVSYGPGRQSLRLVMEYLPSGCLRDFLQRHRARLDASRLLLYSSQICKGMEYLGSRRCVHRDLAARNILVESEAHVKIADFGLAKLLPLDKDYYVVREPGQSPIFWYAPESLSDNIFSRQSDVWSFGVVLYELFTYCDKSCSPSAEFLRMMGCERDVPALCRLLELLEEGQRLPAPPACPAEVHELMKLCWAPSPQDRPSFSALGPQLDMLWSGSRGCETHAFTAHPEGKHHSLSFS
Put plainly: JAK3 Inhibition Assay. Conditions: 1 μM poly(Glu)4Tyr, 5 μM ATP, 1 nM JAK3, 25 °C; read-out: JAK3 enzyme inhibition (Ki). Here is the method: as §1, §2, §3

In assay [3] the target is PKA (Homo sapiens, UniProt P17612). As to the kind of experiment: PKA Inhibition Assay (coupled enzyme assay). The note with it: 50 μM ATP, 80 μM Kemptide, 18 nM PKA, 30 °C. Here is the method: Compounds were screened for their ability to inhibit PKA using a standard coupled enzyme assay (Fox et al., Protein Sci, 1998, 7, 2249). Assays were carried out in a mixture of 100 mM HEPES (pH 7.5), 10 mM MgCl2, 25 mM NaCl, 1 mM DTT and 3% DMSO. Final substrate concentrations in the assay were 50 μM ATP (Sigma Chemicals) and 80 μM peptide (Kemptide, American Peptide, Sunnyvale, Calif.). Assays were carried out at 30 ° C. and 18 nM PKA. Final concentrations of the components of the coupled enzyme system were 2.5 mM phosphoenolpyruvate, 300 μM NADH, 30 μg/ml pyruvate kinase and 10 μg/ml lactate dehydrogenase.
An assay stock buffer solution was prepared containing all of the reagents listed above, with the exception of ATP, and the test compound of the present invention. 55 μl of the stock solution was placed in a 96 well plate followed by addition of 2 μl of DMSO stock containing serial dilutions of the test compound of the present invention (typically starting from a final concentration of 5 μM). The plate was preincubated for 10 minutes at 30° C. and the reaction initiated by addition of 5 μl of ATP (final concentration 50 μM). Initial reaction rates were determined with a Molecular Devices SpectraMax Plus plate reader over a 15 minute time course. IC50 and Ki data were calculated from non-linear regression analysis using the Prism software package (GraphPad Prism version 3.0a for Macintosh, GraphPad Software, San Diego, Calif., USA).

Assay [4] addresses T2, ROCK (Homo sapiens, UniProt Q13464).
T2 construct: ROCK I (AA 6-553)
As to the kind of experiment: ROCK Inhibition Assays. Conditions: read-out: ROCK enzyme inhibition (Ki). Here is the method:
Compounds are screened for their ability to inhibit ROCK I (AA 6-553) activity using a standard coupled enzyme system (Fox et al. Protein Sci. 7: 2249, 1998). Reactions are carried out in a solution containing 100 mM HEPES (pH 7.5), 10 mM MgCl2, 25 mM NaCl, 2 mM DTT and 1.5% DMSO. Final substrate concentrations in the assay are 45 μM ATP (Sigma Chemicals, St Louis, Mo.) and 200 μM peptide (American Peptide, Sunnyvale, Calif.). Reactions are carried out at 30 ° C. and 45 nM ROCK I. Final concentrations of the components of the coupled enzyme system are 2.5 mM phosphoenolpyruvate, 350 μM NADH, 30 μg/ml pyruvate kinase and 10 μg/ml lactate dehydrogenase.
Compounds are screened for their ability to inhibit ROCK using a standard radioactive enzyme assay. Assays are carried out in a solution containing 100 mM HEPES (pH 7.5), 10 mM MgCl2, 25 mM NaCl, 2 mM DTT and 1.5% DMSO. Final substrate concentrations in the assay are 13 μM [γ-^33P] ATP (25 mCi ^33P ATP/mmol ATP, Perkin Elmer, Cambridge, Mass./Sigma Chemicals, St Louis, Mo.) and 27 μM Myelin Basic Protein (MBP). Final enzyme concentration in the assay is 5 nM ROCK. Assays are carried out at room temperature. 1.5 μl of DMSO stock containing serial dilutions of the compound of the present invention (concentrations ranging from 10 μM to 2.6 nM) is placed in a 96 well plate. 50 μl of Solution 1 (100 mM HEPES (pH 7.5), 10 mM MgCl2, […] [γ-^33P] ATP) is added to the plate. The reaction is initiated by addition of 50 μl of Solution 2 (100 mM HEPES (pH 7.5), 10 mM MgCl2, 4 mM DTT, […] and 10 nM ROCK). After 2 hours the reaction is quenched with 50 μL of 30% trichloroacetic acid (TCA, Fisher) containing 9 mM ATP. Transfer of 140 μL of the quenched reaction to a glass fiber filter plate (Corning, Cat. No.3511) is followed by washing 3 times with 5% TCA. 50 μL of Optima Gold scintillation fluid (Perkin Elmer) is added and the plates are counted on a Top Count (Perkin Elmer). After removing mean background values for all of the data points the data is fit using Prism software to obtain a Ki(app).

Chain of JAK2 (O60674 whole entry): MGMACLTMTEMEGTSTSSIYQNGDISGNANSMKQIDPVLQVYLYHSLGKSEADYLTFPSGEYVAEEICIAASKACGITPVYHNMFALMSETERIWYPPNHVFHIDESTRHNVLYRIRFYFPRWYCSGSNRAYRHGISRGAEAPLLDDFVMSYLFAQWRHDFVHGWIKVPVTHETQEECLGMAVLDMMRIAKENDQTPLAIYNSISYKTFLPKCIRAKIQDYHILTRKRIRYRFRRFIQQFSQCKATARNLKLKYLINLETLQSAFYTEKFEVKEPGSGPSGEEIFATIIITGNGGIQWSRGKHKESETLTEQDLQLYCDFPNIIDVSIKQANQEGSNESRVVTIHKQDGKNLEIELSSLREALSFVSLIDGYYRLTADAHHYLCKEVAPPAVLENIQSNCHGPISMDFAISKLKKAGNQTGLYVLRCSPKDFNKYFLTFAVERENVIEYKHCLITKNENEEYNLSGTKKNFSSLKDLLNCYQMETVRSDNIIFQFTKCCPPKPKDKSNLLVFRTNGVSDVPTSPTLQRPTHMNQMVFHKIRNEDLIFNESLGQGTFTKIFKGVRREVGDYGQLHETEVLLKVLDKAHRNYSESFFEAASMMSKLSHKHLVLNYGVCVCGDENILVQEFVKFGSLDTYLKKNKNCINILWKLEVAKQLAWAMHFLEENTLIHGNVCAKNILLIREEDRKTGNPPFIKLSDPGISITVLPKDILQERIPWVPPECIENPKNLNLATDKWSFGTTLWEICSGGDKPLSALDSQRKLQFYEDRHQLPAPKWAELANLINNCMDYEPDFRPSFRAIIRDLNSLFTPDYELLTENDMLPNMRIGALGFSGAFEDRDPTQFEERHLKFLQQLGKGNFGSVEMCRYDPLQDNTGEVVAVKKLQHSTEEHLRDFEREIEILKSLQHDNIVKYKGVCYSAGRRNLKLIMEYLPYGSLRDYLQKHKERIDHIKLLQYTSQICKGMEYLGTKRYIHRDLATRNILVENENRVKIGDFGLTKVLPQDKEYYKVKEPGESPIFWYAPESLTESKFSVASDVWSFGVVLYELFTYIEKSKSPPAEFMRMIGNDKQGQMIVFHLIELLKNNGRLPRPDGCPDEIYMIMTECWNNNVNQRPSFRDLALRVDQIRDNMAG
T2 sequence (Q13464 6-553): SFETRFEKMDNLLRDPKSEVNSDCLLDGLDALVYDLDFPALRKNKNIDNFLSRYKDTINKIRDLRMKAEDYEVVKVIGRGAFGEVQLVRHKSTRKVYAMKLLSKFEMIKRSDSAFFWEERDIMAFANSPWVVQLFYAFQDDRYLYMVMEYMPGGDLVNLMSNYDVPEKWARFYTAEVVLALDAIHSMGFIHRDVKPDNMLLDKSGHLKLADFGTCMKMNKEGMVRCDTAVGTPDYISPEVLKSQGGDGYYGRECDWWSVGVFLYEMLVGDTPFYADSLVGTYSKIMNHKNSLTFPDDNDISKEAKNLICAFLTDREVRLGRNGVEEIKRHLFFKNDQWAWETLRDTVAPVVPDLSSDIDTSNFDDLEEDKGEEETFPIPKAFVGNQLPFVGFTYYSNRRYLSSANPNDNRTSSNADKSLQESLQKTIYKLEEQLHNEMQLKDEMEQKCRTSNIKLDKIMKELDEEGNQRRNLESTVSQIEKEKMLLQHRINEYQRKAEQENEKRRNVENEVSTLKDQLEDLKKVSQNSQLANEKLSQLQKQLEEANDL

With `C1=C(c2ncnc3[nH]ccc23)CCC1` [Compound 1, 4-cyclopentenyl-7H-pyrrolo[2,3-d]pyrimidine], the Ki is less than 500 nM in assay [1], less than 500 nM in assay [2], 500 to 5000 nM in assay [3] and 500 to 5000 nM in assay [4].
Take `C1=C(c2ncnc3[nH]ccc23)CCCC1` [Compound 2]: the Ki was less than 500 nM in assay [1], less than 500 nM in assay [2], 500 to 5000 nM in assay [3] and 500 to 5000 nM in assay [4].
On to `c1nc(C2CCCC2)c2cc[nH]c2n1` [Compound 3, 4-cyclopentyl-7H-pyrrolo[2,3-d]pyrimidine], for which the Ki in assay [1], in assay [2], in assay [3] and in assay [4] was 500 to 5000 nM each time.
`C(=C\c1ncnc2[nH]ccc12)/c1ccccc1` [Compound 4, 4-styryl-7H-pyrrolo[2,3-d]pyrimidine]: the inhibition constant (Ki) in assay [1] is less than 500 nM; in assay [2], less than 500 nM; in assay [3] it was 500 to 5000 nM; in assay [4] it was 500 to 5000 nM.
With `Fc1ccc(/C=C/c2ncnc3[nH]ccc23)cc1` [Compound 5, 4-(4-fluorostyryl)-7H-pyrrolo[2,3-d]pyrimidine], the Ki in assay [1] was less than 500 nM; in assay [2], less than 500 nM; in assay [3] it was 500 to 5000 nM; in assay [4] it was 500 to 5000 nM.
With `Clc1ccc(/C=C/c2ncnc3[nH]ccc23)cc1` [Compound 6, 4-(4-chlorostyryl)-7H-pyrrolo[2,3-d]pyrimidine], the Ki was less than 500 nM in assay [1], less than 500 nM in assay [2], 500 to 5000 nM in assay [3] and 500 to 5000 nM in assay [4].
`FC(F)(F)c1ccc(/C=C/c2ncnc3[nH]ccc23)cc1` [Compound 7, 4-(4-(trifluoromethyl)styryl)-7H-pyrrolo[2,3-d]pyrimidine]: the inhibitory constant (Ki) is less than 500 nM in assay [1], less than 500 nM in assay [2], 500 to 5000 nM in assay [3] and 500 to 5000 nM in assay [4].
`C=C(c1ccccc1)c1ncnc2[nH]ccc12` [Compound 8, 4-(1-phenylvinyl)-7H-pyrrolo[2,3-d]pyrimidine]: the inhibitory constant (Ki) in assay [1] was greater than 5000 nM; in assay [2], 500 to 5000 nM; in assay [3], 500 to 5000 nM; in assay [4], 500 to 5000 nM.
Regarding `CC(C)(C)OC(=O)N1CC=C(c2ncnc3[nH]ccc23)CC1` [Compound 9], the inhibitory constant (Ki) in assay [1] is less than 500 nM; in assay [2], less than 500 nM; in assay [3], 500 to 5000 nM; in assay [4], 500 to 5000 nM.
With `C1=C(c2ncnc3[nH]ccc23)CCNC1` [Compound 10], the Ki is greater than 5000 nM in assay [1], greater than 5000 nM in assay [2], 500 to 5000 nM in assay [3] and 500 to 5000 nM in assay [4].
For the molecule `CC1CCCC=C1c1ncnc2[nH]ccc12` (stereo not drawn) [Compound 11], the Ki was 500 to 5000 nM in assay [1], less than 500 nM in assay [2], 500 to 5000 nM in assay [3] and 500 to 5000 nM in assay [4].
Turning to `C=C(c1ncnc2[nH]ccc12)C1CCCCC1` [Compound 12], the inhibition constant Ki in assay [1], in assay [3] and in assay [4] was 500 to 5000 nM in each case.
Regarding `C1=C(c2ncnc3[nH]ccc23)CCSC1` [Compound 13], the Ki was less than 500 nM in assay [1], less than 500 nM in assay [2], 500 to 5000 nM in assay [3] and 500 to 5000 nM in assay [4].
With `C=Cc1ncnc2[nH]ccc12` [Compound 14], the inhibitory constant (Ki) in assay [1], in assay [2], in assay [3] and in assay [4] was 500 to 5000 nM in each case.
As to `CC(=O)N1CC=C(c2ncnc3[nH]ccc23)CC1` [Compound 15], the inhibition constant (Ki) in assay [1] is greater than 5000 nM; in assay [2] it was greater than 5000 nM; in assay [3], 500 to 5000 nM; in assay [4] it was 500 to 5000 nM.
`O=C(CC(F)(F)F)N1CC=C(c2ncnc3[nH]ccc23)CC1` [Compound 16]: the inhibitory constant (Ki) in assay [1] was 500 to 5000 nM; in assay [2], greater than 5000 nM; in assay [3], 500 to 5000 nM; in assay [4], 500 to 5000 nM.
On to `N#CCC(=O)N1CC=C(c2ncnc3[nH]ccc23)CC1` [Compound 17], for which the Ki is less than 500 nM in assay [1], 500 to 5000 nM in assay [2], 500 to 5000 nM in assay [3] and 500 to 5000 nM in assay [4].
As for `C=C(c1ncnc2[nH]ccc12)C1CCCC1` [Compound 18], the inhibitory constant (Ki) in assay [1] was less than 500 nM; in assay [2] it was less than 500 nM; in assay [3], 500 to 5000 nM; in assay [4], 500 to 5000 nM.
On to `CC1CC=C(c2ncnc3[nH]ccc23)C1C` (stereo not drawn) [Compound 19], for which the Ki in assay [1] is less than 500 nM; in assay [2] it was less than 500 nM; in assay [3], 500 to 5000 nM; in assay [4] it was 500 to 5000 nM.
